Test results as given in patent US20090253709A1 (NATIONAL DEFENSE MEDICAL CENTER, priority 2008, published 2009).

system: not listed separately; assay: MTT assay in H1299 cells; type: cell-based; details: human, H1299 cells (H1299/PhTERT-driven SEAP reporter system); H1299; compound concentration 1 μM; read-out: MTT (Inhibition μM ± SD)
Experimental: H1299 is a non-small cell lung cancer cell line with telomerase activity. The cell extract of H1299 cell lines can be used for selecting the telomerase activity inhibitors in vitro and the telomerase activity-inhibited substances in vivo. H1299 cell line was incubated with RPMI 1640 medium supplemented with 10% of fetal bovine serum (FBS). A total of 2×10^3 […] cells were seeded in the 96-well cell culture plate, and incubated with DMEM (GIBCO®)/glucose mixture and Medium 199 (GIBCO®)/10% FBS/1 mM sodium pyruvate (GIBCO®)/4 mM L-glutamine (GIBCO®) mixture at a ratio of 4:1 at 37° C. for 24 hours. […] After 48 hours of drug treatment, the cultured medium were collected for performing the analysis of SEAP activity. The cells were washed with 1×PBS once immediately, and the MTT assay was performed to compare the compounds with the relative toxicity or the influence to the proliferation and activity. Mitochondria is the place for cellular respiration, and there are many reductive reactions catalyzed by dehydrogenases. MTT is a water-soluble yellow compound, and the […] will be formed after reduction. This crystal can be dissolved in the organic solvent, and has high absorbance at the wavelength of 570 nm. The higher cellular activity or more cell numbers, the more generated crystal violets. Therefore, the cellular activity and cell number can be obtained by the MTT assay. MTT solution was prepared by dissolving MTT powder in PBS solution to achieve 5 mg/ml, filtrated and stored at 4° C. Lysis buffer contained 20% (w/v) of SDS in 50% of N,N-dimethylformamide (DMF, Riedel-deHaën). After the cells were incubated in the 96-well culture plate, the original medium was discarded, 100 μl of the fresh serum-free medium per well and 25 μl of MTT solution per well were added in respectively, and the cells were further incubated in the CO2 incubator at 37° C. for 4 hours. Then, 100 μl of lysis buffer per well was added in and incubated overnight in the CO2 incubator at 37° C. The absorbance at 570 nm was determined by the ELISA reader. The selection of telomerase inhibitors of the anthraquinone compounds provided in the present invention was performed by the […]-driven SEAP system. SEAP is the communication gene in this drug selection model. The SEAP inhibition was shown as follows. […] Subsequently, the linear slope of absorbance to the measuring time was calculated, and the variance of absorbance at 405 nm per minute was represented and compared with the SEAP-producing result of drug-untreated H1299 cells. In addition, the influence of the cell-treated drug solution to the cellular proliferation and the drug toxicity to the cells were considered, and the cellular growth was evaluated by the MTT assay. The drug-treated cells were analyzed by the SEAP assay and the data analysis of MTT assay at the same time. Both results were compared so as to delete the influence of cell number or the activity to SEAP, and the dose-dependent phenomenon could be anticipated in the range of drug concentration designed by the laboratory. […] Since the chemically-synthetic drugs have colors thereon, the SEAP value of drug-treatment without cells was also determined to be the background value which was deducted while treating with the drugs. The candidate drug for inhibiting telomerase on the hTERT gene expression level was evaluated and anticipated.

Structure (SMILES) | viability at 24 h, 1 µM
O=C(CN1CCCCC1)Nc1ccc2c(c1)C(=O)c1cc(NC(=O)CN3CCCCC3)ccc1C2=O [Compound 7, 2,7-Bis[2-(piperidino)acetamido]anthraquinone] | 50 ± 16%
O=C(CN1CCNCC1)Nc1ccc2c(c1)C(=O)c1cc(NC(=O)CN3CCNCC3)ccc1C2=O [Compound 12, 2,7-Bis[2-(piperazino)acetamido]anthraquinone] | 88 ± 19%
O=C(CCCl)Nc1ccc2c(c1)C(=O)c1cc(NC(=O)CCCl)ccc1C2=O [Compound 15, 2,7-Bis(3-chloropropionamido)anthraquinone] | 77 ± 13%
CCCC(=O)Nc1ccc2c(c1)C(=O)c1cc(NC(=O)CCC)ccc1C2=O [Compound 28, 2,7-Bis(butyramido)anthraquinone] | 93 ± 14%
O=C1c2ccc(NC(=O)C3CC3)cc2C(=O)c2cc(NC(=O)C3CC3)ccc21 [Compound 32, 2,7-Bis(cyclopropanecarbonamido)anthraquinone] | 46 ± 14%

same assay, conditions: human, H1299 cells (H1299/PhTERT-driven SEAP reporter system); H1299; compound concentration 10 μM; read-out: MTT (Inhibition μM ± SD)

Structure (SMILES) | viability at 24 h, 10 µM
O=C(CN1CCCCC1)Nc1ccc2c(c1)C(=O)c1cc(NC(=O)CN3CCCCC3)ccc1C2=O [Compound 7, 2,7-Bis[2-(piperidino)acetamido]anthraquinone] | 37 ± 15%
O=C(CN1CCNCC1)Nc1ccc2c(c1)C(=O)c1cc(NC(=O)CN3CCNCC3)ccc1C2=O [Compound 12, 2,7-Bis[2-(piperazino)acetamido]anthraquinone] | 85 ± 13%
O=C(CCCl)Nc1ccc2c(c1)C(=O)c1cc(NC(=O)CCCl)ccc1C2=O [Compound 15, 2,7-Bis(3-chloropropionamido)anthraquinone] | 44 ± 15%
CCCC(=O)Nc1ccc2c(c1)C(=O)c1cc(NC(=O)CCC)ccc1C2=O [Compound 28, 2,7-Bis(butyramido)anthraquinone] | 59 ± 13%
O=C1c2ccc(NC(=O)C3CC3)cc2C(=O)c2cc(NC(=O)C3CC3)ccc21 [Compound 32, 2,7-Bis(cyclopropanecarbonamido)anthraquinone] | 36 ± 13%

same assay, conditions: human, H1299 cells (H1299/PhTERT-driven SEAP reporter system); H1299; compound concentration 100 μM; read-out: MTT (Inhibition μM ± SD)

Structure (SMILES) | viability at 24 h, 100 µM
O=C(CN1CCCCC1)Nc1ccc2c(c1)C(=O)c1cc(NC(=O)CN3CCCCC3)ccc1C2=O [Compound 7, 2,7-Bis[2-(piperidino)acetamido]anthraquinone] | 35 ± 11%
O=C(CN1CCNCC1)Nc1ccc2c(c1)C(=O)c1cc(NC(=O)CN3CCNCC3)ccc1C2=O [Compound 12, 2,7-Bis[2-(piperazino)acetamido]anthraquinone] | 88 ± 11%
O=C(CCCl)Nc1ccc2c(c1)C(=O)c1cc(NC(=O)CCCl)ccc1C2=O [Compound 15, 2,7-Bis(3-chloropropionamido)anthraquinone] | 29 ± 11%
CCCC(=O)Nc1ccc2c(c1)C(=O)c1cc(NC(=O)CCC)ccc1C2=O [Compound 28, 2,7-Bis(butyramido)anthraquinone] | 40 ± 15%
O=C1c2ccc(NC(=O)C3CC3)cc2C(=O)c2cc(NC(=O)C3CC3)ccc21 [Compound 32, 2,7-Bis(cyclopropanecarbonamido)anthraquinone] | 43 ± 15%

system: not listed separately; assay: MTT assay in BJ1 cells; type: cell-based; details: human, hTERT-BJ1-PTERT(3.4)-SEAP cells; BJ1; compound concentration 1 μM; read-out: MTT (Inhibition μM ± SD)
Experimental: A total of 2×10^3 […] cells were seeded in the 96-well cell culture plate, and incubated with DMEM (GIBCO®)/glucose mixture and Medium 199 (GIBCO®)/10% FBS/1 mM sodium pyruvate (GIBCO®)/4 mM L-glutamine (GIBCO®) mixture at a ratio of 4:1 at 37° C. for 24 hours. […] After 48 hours of drug treatment, the cultured medium were collected for performing the analysis of SEAP activity. The cells were washed with 1×PBS once immediately, and the MTT assay was performed to compare the compounds with the relative toxicity or the influence to the proliferation and activity. Mitochondria is the place for cellular respiration, and there are many reductive reactions catalyzed by dehydrogenases. MTT is a water-soluble yellow compound, and the […] will be formed after reduction. This crystal can be dissolved in the organic solvent, and has high absorbance at the wavelength of 570 nm. The higher cellular activity or more cell numbers, the more generated crystal violets. Therefore, the cellular activity and cell number can be obtained by the MTT assay. MTT solution was prepared by dissolving MTT powder in PBS solution to achieve 5 mg/ml, filtrated and stored at 4° C. Lysis buffer contained 20% (w/v) of SDS in 50% of N,N-dimethylformamide (DMF, Riedel-deHaën). After the cells were incubated in the 96-well culture plate, the original medium was discarded, 100 μl of the fresh serum-free medium per well and 25 μl of MTT solution per well were added in respectively, and the cells were further incubated in the CO2 incubator at 37° C. for 4 hours. Then, 100 μl of lysis buffer per well was added in and incubated overnight in the CO2 incubator at 37° C. The absorbance at 570 nm was determined by the ELISA reader.

Structure (SMILES) | viability at 48 h, 1 µM
O=C(CN1CCCCC1)Nc1ccc2c(c1)C(=O)c1cc(NC(=O)CN3CCCCC3)ccc1C2=O [Compound 7, 2,7-Bis[2-(piperidino)acetamido]anthraquinone] | 89 ± 1%
O=C(CN1CCNCC1)Nc1ccc2c(c1)C(=O)c1cc(NC(=O)CN3CCNCC3)ccc1C2=O [Compound 12, 2,7-Bis[2-(piperazino)acetamido]anthraquinone] | 88 ± 2%
O=C(CCCl)Nc1ccc2c(c1)C(=O)c1cc(NC(=O)CCCl)ccc1C2=O [Compound 15, 2,7-Bis(3-chloropropionamido)anthraquinone] | 77 ± 2%
CCCC(=O)Nc1ccc2c(c1)C(=O)c1cc(NC(=O)CCC)ccc1C2=O [Compound 28, 2,7-Bis(butyramido)anthraquinone] | 84 ± 2%
O=C1c2ccc(NC(=O)C3CC3)cc2C(=O)c2cc(NC(=O)C3CC3)ccc21 [Compound 32, 2,7-Bis(cyclopropanecarbonamido)anthraquinone] | 60 ± 6%

same assay, conditions: human, hTERT-BJ1-PTERT(3.4)-SEAP cells; BJ1; compound concentration 10 μM; read-out: MTT (Inhibition μM ± SD)

Structure (SMILES) | viability at 48 h, 10 µM
O=C(CN1CCCCC1)Nc1ccc2c(c1)C(=O)c1cc(NC(=O)CN3CCCCC3)ccc1C2=O [Compound 7, 2,7-Bis[2-(piperidino)acetamido]anthraquinone] | 78 ± 3%
O=C(CN1CCNCC1)Nc1ccc2c(c1)C(=O)c1cc(NC(=O)CN3CCNCC3)ccc1C2=O [Compound 12, 2,7-Bis[2-(piperazino)acetamido]anthraquinone] | 85 ± 15%
O=C(CCCl)Nc1ccc2c(c1)C(=O)c1cc(NC(=O)CCCl)ccc1C2=O [Compound 15, 2,7-Bis(3-chloropropionamido)anthraquinone] | 65 ± 1%
CCCC(=O)Nc1ccc2c(c1)C(=O)c1cc(NC(=O)CCC)ccc1C2=O [Compound 28, 2,7-Bis(butyramido)anthraquinone] | 51 ± 8%
O=C1c2ccc(NC(=O)C3CC3)cc2C(=O)c2cc(NC(=O)C3CC3)ccc21 [Compound 32, 2,7-Bis(cyclopropanecarbonamido)anthraquinone] | 44 ± 10%

same assay, conditions: human, hTERT-BJ1-PTERT(3.4)-SEAP cells; BJ1; compound concentration 100 μM; read-out: MTT (Inhibition μM ± SD)

Structure (SMILES) | viability at 48 h, 100 µM
O=C(CN1CCCCC1)Nc1ccc2c(c1)C(=O)c1cc(NC(=O)CN3CCCCC3)ccc1C2=O [Compound 7, 2,7-Bis[2-(piperidino)acetamido]anthraquinone] | 22 ± 2%
O=C(CN1CCNCC1)Nc1ccc2c(c1)C(=O)c1cc(NC(=O)CN3CCNCC3)ccc1C2=O [Compound 12, 2,7-Bis[2-(piperazino)acetamido]anthraquinone] | 76 ± 2%
O=C(CCCl)Nc1ccc2c(c1)C(=O)c1cc(NC(=O)CCCl)ccc1C2=O [Compound 15, 2,7-Bis(3-chloropropionamido)anthraquinone] | 39 ± 1%
CCCC(=O)Nc1ccc2c(c1)C(=O)c1cc(NC(=O)CCC)ccc1C2=O [Compound 28, 2,7-Bis(butyramido)anthraquinone] | 50 ± 6%
O=C1c2ccc(NC(=O)C3CC3)cc2C(=O)c2cc(NC(=O)C3CC3)ccc21 [Compound 32, 2,7-Bis(cyclopropanecarbonamido)anthraquinone] | 47 ± 2%

system: hTERT expression; assay: SEAP assay in hTERT-BJ1-PTERT(3.4)-SEAP cells; type: cell-based; details: Homo sapiens; BJ1; compound concentration 1 μM; read-out: SEAP (Inhibition μM ± SD)
Experimental: A total of 2×10^3 hTERT-BJ1-PTERT(3.4)-SEAP cells were seeded in the 96-well cell culture plate, and incubated with DMEM (GIBCO®)/glucose mixture and Medium 199 (GIBCO®)/10% FBS/1 mM sodium pyruvate (GIBCO®)/4 mM L-glutamine (GIBCO®) mixture at a ratio of 4:1 at 37° C. for 24 hours. When the cells were attached in the bottom of the well, the seriously-diluted compounds with different concentrations ([…]) were treated with the cells for 48 hours, and the PTERT(3.4)-SEAP cells without drug treatment were being the control. After 48 hours of drug treatment, the cultured medium were collected for performing the analysis of SEAP activity. The cells were washed with 1×PBS once immediately, and the MTT assay was performed to compare the compounds with the relative toxicity or the influence to the proliferation and activity.
The cellular medium after the cellular incubation was transferred into the eppondorf tube, and the activity of endogeneous alkaline phosphatase was inactivated at 65° C. for 10 minutes. After centrification, the mixture was obtained by mixing 50 μl of the supernatant with the equal volume of the SEAP buffer. The mixture and the substrate (120 mM of p-nitrophenylphosphate) were preheated at 37° C. for 10 minutes respectively, and the mixture and the substrate were mixed at a ratio of 1:10 and reacted at 37° C. The absorbance of visible light at 405 nm was determined at the appropriate time intervals, and the enzymatic activity of SEAP was represented by the speed of the increasing absorbance at 405 nm.

Structure (SMILES) | activity at 1 µM
O=C(CN1CCCCC1)Nc1ccc2c(c1)C(=O)c1cc(NC(=O)CN3CCCCC3)ccc1C2=O [Compound 7, 2,7-Bis[2-(piperidino)acetamido]anthraquinone] | 118 ± 16%

same assay, conditions: Homo sapiens; BJ1; compound concentration 10 μM; read-out: SEAP (Inhibition μM ± SD)

Structure (SMILES) | activity at 10 µM
O=C(CN1CCCCC1)Nc1ccc2c(c1)C(=O)c1cc(NC(=O)CN3CCCCC3)ccc1C2=O [Compound 7, 2,7-Bis[2-(piperidino)acetamido]anthraquinone] | 121 ± 3%

same assay, conditions: Homo sapiens; BJ1; compound concentration 100 μM; read-out: SEAP (Inhibition μM ± SD)

Structure (SMILES) | activity at 100 µM
O=C(CN1CCCCC1)Nc1ccc2c(c1)C(=O)c1cc(NC(=O)CN3CCCCC3)ccc1C2=O [Compound 7, 2,7-Bis[2-(piperidino)acetamido]anthraquinone] | 103 ± 5%

system: not given; assay: not given; details: not given

Structure (SMILES) | melting point
O=C(CN1CCCCC1)Nc1ccc2c(c1)C(=O)c1cc(NC(=O)CN3CCCCC3)ccc1C2=O [Compound 7, 2,7-Bis[2-(piperidino)acetamido]anthraquinone] | 243 °C
O=C(CN1CCNCC1)Nc1ccc2c(c1)C(=O)c1cc(NC(=O)CN3CCNCC3)ccc1C2=O [Compound 12, 2,7-Bis[2-(piperazino)acetamido]anthraquinone] | 173 °C
O=C(CCCl)Nc1ccc2c(c1)C(=O)c1cc(NC(=O)CCCl)ccc1C2=O [Compound 15, 2,7-Bis(3-chloropropionamido)anthraquinone] | 281 °C
CCCC(=O)Nc1ccc2c(c1)C(=O)c1cc(NC(=O)CCC)ccc1C2=O [Compound 28, 2,7-Bis(butyramido)anthraquinone] | 275 °C
O=C1c2ccc(NC(=O)C3CC3)cc2C(=O)c2cc(NC(=O)C3CC3)ccc21 [Compound 32, 2,7-Bis(cyclopropanecarbonamido)anthraquinone] | 352 °C
